{"source": "paper PMC9513391", "about": "“Crystal structure of the α-ketoglutarate-dependent non-heme iron oxygenase CmnC in capreomycin biosynthesis and its engineering to catalyze hydroxylation of the substrate enantiomer” (Frontiers in Chemistry, 2022)", "type_in_all_cases": "binding", "key": {"CmnC [1]": {"molecular_target": "T1, CmnC (Saccharothrix mutabilis, UniProt A6YEH4)", "T1 construct": "cmnC amplified from genomic DNA in pET28a, E. coli BL21 (DE3), Ni-NTA purified; homodimer in crystal and by size-exclusion chromatography", "T1 sequence (A6YEH4 1-338)": "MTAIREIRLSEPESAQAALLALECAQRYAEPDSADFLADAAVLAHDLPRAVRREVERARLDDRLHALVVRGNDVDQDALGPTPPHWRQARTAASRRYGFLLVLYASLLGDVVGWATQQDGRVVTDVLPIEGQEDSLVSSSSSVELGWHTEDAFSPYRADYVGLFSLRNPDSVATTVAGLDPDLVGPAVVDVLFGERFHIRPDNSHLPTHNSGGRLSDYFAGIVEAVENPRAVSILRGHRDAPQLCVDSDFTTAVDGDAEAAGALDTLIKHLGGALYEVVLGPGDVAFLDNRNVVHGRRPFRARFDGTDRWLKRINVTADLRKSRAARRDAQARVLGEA", "experiment": "X-ray crystal structure by soaking; hydroxylation by LC-MS", "details": "0.1 mM FeCl2 soak"}, "CmnC [2]": {"molecular_target": "T2, CmnC (Saccharothrix mutabilis, UniProt A6YEH4, L136Q/S138G/D249Y)", "T2 construct": "cmnC amplified from genomic DNA in pET28a, E. coli BL21 (DE3), Ni-NTA purified; homodimer in crystal and by size-exclusion chromatography", "T2 sequence (A6YEH4 1-338 L136Q/S138G/D249Y)": "as the sequence (A6YEH4 1-338) above, with L136Q, S138G, D249Y counted along it", "experiment": "X-ray crystal structure by soaking, […] Å; hydroxylation by LC-MS", "details": "20 mM D-Arg soak, 12 h; activity: α-KG, Fe(II), ascorbate, pH 7.0, 26 °C"}, "CmnC [3]": {"molecular_target": "T1, CmnC", "experiment": "X-ray crystal structure by soaking", "details": "3 mM α-KG, 0.1 mM FeCl2 soak, 12 h; ternary complex with L-Arg also solved"}, "CmnC [4]": {"molecular_target": "T2, CmnC", "experiment": "X-ray crystal structure by soaking, […] Å", "details": "3 mM α-KG and 0.1 mM FeCl2 soak, 12 h"}}, "data": [{"smiles": "N=C(N)NCCC[C@H](N)C(=O)O", "note": "[L-Arg]", "values": [{"measurement": "X-ray crystal structure by soaking; hydroxylation by LC-MS", "setting": "CmnC [1]; 3 mM L-Arg, tartrate in α-KG site in the binary complex, ternary complex with α-KG also solved", "result": "in complex with L-Arg (CmnC^ L−Arg), L-hArg (CmnC^ L-hArg), α-KG (CmnC^α-kg)"}]}, {"smiles": "N=C(N)NCCC[C@@H](N)C(=O)O", "note": "[D-Arg]", "values": [{"measurement": "X-ray crystal structure by soaking, 1.75 Å; hydroxylation by LC-MS", "setting": "CmnC [2]", "result": "crystal structures of CmnC^L136Q,S138G,D249Y in complex with α-KG (CmnC^triple,α-kg) and D-Arg (CmnC^triple,D−Arg)"}]}, {"smiles": "O=C(O)CCC(=O)C(=O)O", "note": "[α-KG]", "values": [{"measurement": "X-ray crystal structure by soaking", "setting": "CmnC [3]", "result": "L-hArg (CmnC^ L-hArg), α-KG (CmnC^α-kg), and L-Arg/α-KG (CmnC^ L−Arg,α-kg)"}, {"measurement": "X-ray crystal structure by soaking, 1.67 Å", "setting": "CmnC [4]", "result": "crystal structures of CmnC^L136Q,S138G,D249Y in complex with α-KG (CmnC^triple,α-kg)"}]}, {"smiles": "N=C(N)NCCCC[C@H](N)C(=O)O", "note": "[L-hArg]", "values": [{"measurement": "X-ray crystal structure by soaking; hydroxylation by LC-MS", "setting": "CmnC [1]; 3 mM L-hArg, tartrate in α-KG site", "result": "in complex with L-Arg (CmnC^ L−Arg), L-hArg (CmnC^ L-hArg), α-KG (CmnC^α-kg)"}]}]}
